SMILES strings stand for the structures. The source made the active and inactive calls. A value given as a limit tells only on which side of the number the result lay.

A short description of data set [1]: HepG2 cell cytotoxicity, dose response, cytotoxicity control for non-replicating M. tuberculosis project (AID 489018). The following applies: Mycobacterium tuberculosis. The class given is functional.
A short description of data set [2]: growth suppression of PTEN-null colon cells, dose response, cell-based, HCT116 PTEN knockout (AID 1047).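 Note: HCT116 colon tumor cells with PTEN knocked out; cells exposed to compound for 60 hours before readout; potency for loss of cell viability measured by luminescence.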 Format: functional.
Data set [3] in a line: THP-1 cell cytotoxicity, dose response, cytotoxicity control for non-replicating M. tuberculosis project (AID 489025). Format: functional.
Data set [4] in a line: cells. The class given is functional.
A short description of data set [5]: growth suppression of beta-catenin-knockout colon cells, dose response, cell-based, HCT116, human colon tumor (AID 1045).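 Note: HCT116 colon tumor cells with beta catenin knocked out; cells exposed to compound for 60 hours.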 Format: functional.
Data set [6] in a line: Vero E6 cell cytotoxicity, dose response, cytotoxicity control for non-replicating M. tuberculosis project, secondary assay (AID 492998). Format: functional, VeroE6. As to conditions: Vero C1008.
For a further data set, the target named is Cytochrome P450 2C9 (Homo sapiens, UniProt P11712).
Chain of Cytochrome P450 2C9 (P11712 whole entry): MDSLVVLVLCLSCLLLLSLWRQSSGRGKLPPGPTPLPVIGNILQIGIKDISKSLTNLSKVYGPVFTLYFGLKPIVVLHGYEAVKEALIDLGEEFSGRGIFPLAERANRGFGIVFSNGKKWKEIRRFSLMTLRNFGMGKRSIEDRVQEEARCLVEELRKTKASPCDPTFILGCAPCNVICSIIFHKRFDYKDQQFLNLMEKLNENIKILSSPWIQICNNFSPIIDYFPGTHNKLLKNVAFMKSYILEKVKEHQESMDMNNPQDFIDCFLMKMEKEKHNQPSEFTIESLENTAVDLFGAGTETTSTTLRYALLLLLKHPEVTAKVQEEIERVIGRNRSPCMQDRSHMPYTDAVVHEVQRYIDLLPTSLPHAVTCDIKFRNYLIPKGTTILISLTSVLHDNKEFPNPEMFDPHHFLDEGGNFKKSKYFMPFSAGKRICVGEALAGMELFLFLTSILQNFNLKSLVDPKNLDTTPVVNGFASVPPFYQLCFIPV
A further data set has as its target Cytochrome P450 2C19 (Homo sapiens, UniProt P33261). Put plainly: Cytochrome panel assay with activity outcomes. Panel member name: p450-cyp2c19 Compounds with AC50 equal or less than 10 uM are considered active. Format: functional. As to conditions: read-out: AC50.
The target in a further data set is Cytochrome P450 3A4 (Homo sapiens, UniProt P08684).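 Note: CYP3A4 tested as one member of a cytochrome P450 panel screen.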
Chain of Cytochrome P450 3A4 (P08684 whole entry): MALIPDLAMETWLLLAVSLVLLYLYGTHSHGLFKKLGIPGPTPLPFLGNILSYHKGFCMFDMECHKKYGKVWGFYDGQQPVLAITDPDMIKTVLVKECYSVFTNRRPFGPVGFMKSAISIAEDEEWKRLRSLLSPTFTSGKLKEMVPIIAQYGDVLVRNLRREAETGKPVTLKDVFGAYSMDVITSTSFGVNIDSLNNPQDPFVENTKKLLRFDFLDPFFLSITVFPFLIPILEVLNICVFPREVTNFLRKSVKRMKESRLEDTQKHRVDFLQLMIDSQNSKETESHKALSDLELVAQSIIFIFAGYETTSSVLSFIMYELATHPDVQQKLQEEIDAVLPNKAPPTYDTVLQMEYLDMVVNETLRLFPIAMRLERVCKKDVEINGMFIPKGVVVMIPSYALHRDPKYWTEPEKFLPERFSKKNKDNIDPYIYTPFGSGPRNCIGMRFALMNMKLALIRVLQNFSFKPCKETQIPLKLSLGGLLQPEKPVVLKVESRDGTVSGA
The nature of data set [7]: cells. The class given is functional, cell-based.
A short description of data set [8]: cells. The class given is functional, cell-based. This is another data set of the same source.
Data set [9] addresses T1, Endoribonuclease toxin MazF (Escherichia coli K-12, UniProt P0AE70).
T1 sequence (P0AE70 whole entry): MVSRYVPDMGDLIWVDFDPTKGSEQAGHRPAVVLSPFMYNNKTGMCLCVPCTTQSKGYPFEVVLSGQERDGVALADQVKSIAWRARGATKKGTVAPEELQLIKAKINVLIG
Description: fluorescent RNA oligo signal without MazF, dose response, counter-screen for MazEF activator project, biochemical, fluorescence, single-stranded RNase substrate (AID 588502). Format: functional. For orientation: A counterscreen serves to expose hits that act by an unwanted route or on another target.

For data set [10], the target named is T1, Endoribonuclease toxin MazF. Put plainly: MazF toxin RNase activators, dose response, biochemical, fluorescence, single-stranded RNA substrate, uHTS hits (AID 588481). The class given is functional.
Data set [11] in a line: inhibitors of firefly luciferase expression or activity, dose response, H4 neuroglioma cells, luminescence (AID 1990). Format: functional, cell-based.
A short description of data set [12]: inhibitors of SNCA 5'UTR-driven reporter translation, confirmation, H4 neuroglioma cells, luminescence (AID 1988). Format: functional, cell-based.
Data set [13] is described as follows: Luminescence Cell-Based Dose Response HTS to Identify Inhibitors of 5'UTR Stem-Loop Driven Prion Protein mRNA Translation in H4 Neuroglioblastoma Cells. [Related pubchem assays: 1827 (Project Summary), 1813 (Primary HTS)]. The class given is functional.
The next data set deals with Large T antigen (Simian virus 40, UniProt P03070). Format: functional, Betapolyomavirus macacae.
Chain of Large T antigen (P03070 whole entry): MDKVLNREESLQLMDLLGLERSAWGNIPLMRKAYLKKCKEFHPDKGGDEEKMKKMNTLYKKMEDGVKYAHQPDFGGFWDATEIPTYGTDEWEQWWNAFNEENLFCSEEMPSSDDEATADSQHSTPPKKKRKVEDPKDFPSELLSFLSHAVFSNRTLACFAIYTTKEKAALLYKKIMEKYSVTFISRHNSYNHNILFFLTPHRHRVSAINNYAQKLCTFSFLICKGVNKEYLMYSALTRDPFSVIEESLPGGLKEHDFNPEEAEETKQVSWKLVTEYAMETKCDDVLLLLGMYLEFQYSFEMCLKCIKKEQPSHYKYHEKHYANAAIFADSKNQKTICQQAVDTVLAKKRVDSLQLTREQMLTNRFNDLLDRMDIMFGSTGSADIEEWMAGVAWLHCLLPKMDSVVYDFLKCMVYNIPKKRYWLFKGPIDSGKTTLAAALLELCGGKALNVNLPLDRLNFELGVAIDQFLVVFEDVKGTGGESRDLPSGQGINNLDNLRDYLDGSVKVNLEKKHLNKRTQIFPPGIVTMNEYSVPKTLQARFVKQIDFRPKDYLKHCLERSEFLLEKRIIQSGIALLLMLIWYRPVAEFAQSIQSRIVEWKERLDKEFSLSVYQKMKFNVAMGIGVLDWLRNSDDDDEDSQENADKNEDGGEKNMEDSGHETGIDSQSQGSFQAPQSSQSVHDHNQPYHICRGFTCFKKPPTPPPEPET
For data set [14], the target named is FAD-linked sulfhydryl oxidase ALR (Homo sapiens, UniProt P55789). Description: inhibitors of human ALR sulfhydryl oxidase, dose response, biochemical, H2O2 detection, luminescence, cherry-pick (AID 493248).
Chain of FAD-linked sulfhydryl oxidase ALR (P55789 whole entry): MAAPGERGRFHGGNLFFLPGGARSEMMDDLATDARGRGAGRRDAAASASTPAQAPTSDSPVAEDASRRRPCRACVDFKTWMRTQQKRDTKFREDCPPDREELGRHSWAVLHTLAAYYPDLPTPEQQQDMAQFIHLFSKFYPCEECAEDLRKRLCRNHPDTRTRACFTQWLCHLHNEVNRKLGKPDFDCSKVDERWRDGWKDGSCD
Another data set relates to H9c2. Put plainly: cells. Format: functional, cell-based. The following applies: Rattus norvegicus, H9c2, Myocardium.
The test system of data set [15] is Streptococcus sp. 'group A'. Put plainly: growth inhibition of control SK(-) GAS strain, dose response, counter-screen for streptokinase expression inhibitor project, luminescence, kanamycin, BacTiterGlo, confirmation (AID 1900). The class given is functional, organism-based.
For a further data set, the system named is Streptococcus. Put plainly: Group A Streptococcus viability loss, dose response, counter-screen for streptokinase expression inhibitor project, luminescence, BacTiterGlo (AID 1915).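 Note: potency for reduction of bacterial viability or growth.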 Format: functional, organism-based.
The target of a further data set is T2, Streptokinase A (Streptococcus pyogenes serotype M1, UniProt P10520).
T2 sequence (P10520 whole entry): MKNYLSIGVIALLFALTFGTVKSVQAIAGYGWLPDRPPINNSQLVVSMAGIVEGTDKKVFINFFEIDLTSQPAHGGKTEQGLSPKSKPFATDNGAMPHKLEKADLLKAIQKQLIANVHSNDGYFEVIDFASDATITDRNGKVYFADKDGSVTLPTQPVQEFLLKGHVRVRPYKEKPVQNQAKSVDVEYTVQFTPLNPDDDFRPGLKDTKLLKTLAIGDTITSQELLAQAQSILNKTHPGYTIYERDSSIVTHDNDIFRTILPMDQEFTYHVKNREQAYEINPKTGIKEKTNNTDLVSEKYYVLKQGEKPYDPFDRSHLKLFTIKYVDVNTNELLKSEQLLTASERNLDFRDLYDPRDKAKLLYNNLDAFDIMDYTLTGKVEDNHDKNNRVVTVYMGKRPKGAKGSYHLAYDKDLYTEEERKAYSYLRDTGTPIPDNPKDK
Put plainly: S. pyogenes streptokinase expression inhibitors, potency, dose response, plasminogen activation absorbance, OD405 (AID 1914).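 Note: secreted streptokinase activity via plasminogen activation per viability signal from cell pellet.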 Format: functional, Streptococcus pyogenes M1 GAS.

Chain of Cytochrome P450 2C19 (P33261 whole entry): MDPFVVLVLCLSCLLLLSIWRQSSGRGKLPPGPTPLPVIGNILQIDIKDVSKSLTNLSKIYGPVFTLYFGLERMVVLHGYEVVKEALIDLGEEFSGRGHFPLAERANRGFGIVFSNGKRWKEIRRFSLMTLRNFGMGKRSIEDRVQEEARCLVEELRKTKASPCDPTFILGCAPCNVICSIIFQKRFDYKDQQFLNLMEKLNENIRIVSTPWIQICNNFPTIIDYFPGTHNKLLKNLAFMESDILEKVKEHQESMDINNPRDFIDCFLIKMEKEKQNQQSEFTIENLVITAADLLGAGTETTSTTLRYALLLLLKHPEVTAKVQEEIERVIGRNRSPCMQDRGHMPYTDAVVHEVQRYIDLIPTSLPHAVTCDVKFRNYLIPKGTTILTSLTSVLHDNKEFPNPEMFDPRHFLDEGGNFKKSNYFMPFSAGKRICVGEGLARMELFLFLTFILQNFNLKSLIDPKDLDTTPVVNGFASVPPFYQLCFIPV

In the case of `CCOc1cc(CNCCO)cc(Br)c1OCc1ccc(Cl)cc1`, the CC50 – broadly, the concentration giving 50% cytotoxicity – was 11 µM (active) in data set [1], 9.41 µM (active) in [3] and 12.7 µM (active) in [6]. For the same molecule, the concentration for a half-maximal effect (EC50) – broadly, the midpoint of the concentration-response curve – in data set [2] is 7.29 µM (active); in data set [5], 7.16 µM (active). Besides, the IC50 (usually the point on the concentration scale where inhibition reaches its midpoint) in “cells [4]” was 26.9 µM (active).
Consider `CCCCn1nc2cc(C(=O)NCC3CC3)ccc2c1OCC`, for which the AC50 (commonly the concentration giving half of the maximal activity seen) on Cytochrome P450 2C9 is “inconclusive”; at Cytochrome P450 2C19, 14.1 µM (inconclusive).
Turning to `Cl.Fc1ccc(CCNCc2cccc(Cl)c2)cc1`, the results for the AC50 on Cytochrome P450 3A4, at Cytochrome P450 2C9 and at Cytochrome P450 2C19 were 12.6 µM (inconclusive), “inconclusive” and 1 µM (inconclusive), respectively.
As for `CC(=O)Nc1ccc2nc(NC(=O)COc3ccccc3C)sc2c1`, the EC50 in the data set “cells [7]” and in “cells [8]” was > 350 µM (not active) in each case.
`CCOc1ccc(C(=O)Cc2cc(OC)c(OC)cc2[N+](=O)[O-])cc1`: the values for the AC50 entry at Cytochrome P450 2C9 and at Cytochrome P450 2C19 were “inconclusive” and 1.41 µM (inconclusive), respectively.
`COc1ccc(CN2C(=O)NC(=O)/C(=C/c3ccc[nH]3)C2=O)cc1`: the EC50 in data set [9] and in data set [10] was > 99 µM (inactive) in each case.
Consider `C=CCn1c(C)cc(C(=O)CN2C(=O)c3ccccc3C2=O)c1C`, for which, at Cytochrome P450 2C9, the AC50 entry is “inconclusive”. In addition, the EC50 was 10.1 µM (inconclusive) in data set [11], 8.53 µM (active) in data set [12] and 18.7 µM (active) in data set [13].
As for `COc1ccc(/C=C/c2cc(=O)c3cc(Cl)ccc3o2)cc1`, the figures for the EC50 in data set [9] and in data set [10] were 38 µM (inactive) and > 99 µM (inactive), respectively.
Take `CCc1c(O)oc2nnc(C)c-2c1C`: the AC50 result on Cytochrome P450 2C9 is “inconclusive”; on Cytochrome P450 2C19, 11.2 µM (inconclusive).
Consider `CCN(CC)c1ccc(NC(=O)c2cccnc2)c(C)c1`, for which the IC50 on Large T antigen was 77.3 µM (active). The AC50 entry was “inconclusive” on Cytochrome P450 2C9, 0.877 µM (active) in data set [14] and 39.8 µM (inconclusive) on Cytochrome P450 2C19.
Regarding `O=[N+]([O-])c1ccc(NN=Cc2ccc3c(c2)OCO3)nc1`, the values for the EC50 in data set [9] and in [10] were > 99 µM (inactive) and 40.5 µM (inactive), respectively.
Consider `CCn1c(/C=N/NC(=O)c2ccc(OC)cc2)nc2ccccc21`, for which the CC50 was > 20 µM (active) in data set [1], 24.1 µM (active) in data set [3] and 17.9 µM (active) in data set [6]. In addition, the IC50 in the data set with H9c2 is > 79 µM (inactive); in the data set “cells [4]” it was 15.7 µM (active).
Turning to `CC(C)c1ccc2[nH]c3c(c2c1)CCC/C3=N\NC(=O)c1ccncc1`, the CC50 in data set [1] is > 20 µM (active); in data set [3] it was 26 µM (active); in data set [6], 11.6 µM (active). Further, the results for the half-maximal effective concentration (EC50) (in data set [15]; with Streptococcus; on Streptokinase A) were 3.54 µM (active), 16.9 µM (active) and > 150 µM (not active), respectively. The IC50 in “cells [4]” is 2 µM (active).

The record behind these values is ChEMBL document CHEMBL1201862, “PubChem BioAssay data set” (2004).
